In patent US10800785B2, “Substituted pyrrolo[2,3-d]pyridazin-4-ones and pyrazolo[3,4-d]pyridazin-4-ones as protein kinase inhibitors” (Shanghai Fochon Pharmaceutical Co., Ltd., priority 2016, dated 2020):

These compounds were tested on DOHH2 cells (assay: Cell proliferation assay (MTS) in DOHH2 cells, mechanism-based assay for BTK inhibition). Settings: Homo sapiens, DOHH-2, 120 h incubation, 5000 cells/well.
In short: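 DOHH2 cells (5000/well) were plated in RPMI-1640 with 10% FBS, left overnight, then exposed 120 h at 37° C, 5% CO2 to compound at 1.5–10000 nM final (nine levels). Proliferation was read by MTS, incubated exactly 2 h and stopped with SDS, as a measure of cellular BTK inhibition.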

Q: How did the IC50 turn out when CC#CC(=O)N1CC[C@@H](c2cn(-c3ccc(Oc4c(F)cccc4F)cc3)c3c(N)n[nH]c(=O)c23)C1 [Example 83, (S)-7-amino-3-(1-(but-2-ynoyl)pyrrolidin-3-yl)-1-(4-(2,6-difluorophenoxy)phenyl)-1,5-dihydro-4H-pyrrolo[2,3-d]pyridazin-4-one] was run?
A: The IC50 was 456 nM.

Q: CC#CC(=O)N1CC[C@H](c2cn(-c3ccc(Oc4c(F)cccc4F)cc3)c3c(N)n[nH]c(=O)c23)C1 [Example 84, (R)-7-amino-3-(1-(but-2-ynoyl)pyrrolidin-3-yl)-1-(4-(2,6-difluorophenoxy)phenyl)-1,5-dihydro-4H-pyrrolo[2,3-d]pyridazin-4-one] was tested. Which IC50 did it give?
A: Its IC50 is 369 nM.

Q: For CC#CC(=O)N1CCC[C@@H](c2nn(-c3ccc(Oc4c(F)cccc4F)cc3)c3c(N)n[nH]c(=O)c23)C1 [Example 85, (R)-7-amino-3-(1-(but-2-ynoyl)piperidin-3-yl)-1-(4-(2,6-difluorophenoxy)phenyl)-1,5-dihydro-4H-pyrazolo[3,4-d]pyridazin-4-one], which IC50 is on record?
A: Its IC50 is 435 nM.

Q: For CC#CC(=O)N1CCC[C@@H](c2cn(-c3ccc(Oc4c(F)cccc4F)cc3)c3c(N)n[nH]c(=O)c23)C1 [Example 87, (S)-7-amino-3-(1-(but-2-ynoyl)piperidin-3-yl)-1-(4-(2,6-difluorophenoxy)phenyl)-1,5-dihydro-4H-pyrrolo[2,3-d]pyridazin-4-one], which IC50 is on record?
A: The IC50 was 265 nM.

Q: With CC#CC(=O)N1CCC[C@H](c2cn(-c3ccc(Oc4c(F)cccc4F)cc3)c3c(N)n[nH]c(=O)c23)C1 [Example 88, (R)-7-amino-3-(1-(but-2-ynoyl)piperidin-3-yl)-1-(4-(2,6-difluorophenoxy)phenyl)-1,5-dihydro-4H-pyrrolo[2,3-d]pyridazin-4-one] as the compound, how does the IC50 read?
A: The IC50 was 432 nM.

Q: Which IC50 does the source give for C=CC(=O)N1CC[C@@H](c2nn(-c3ccc(C(=O)Nc4ccccn4)cc3)c3c(N)n[nH]c(=O)c23)C1 [Example 90, (R)-4-(3-(1-acryloylpyrrolidin-3-yl)-7-amino-4-oxo-4,5-dihydro-1H-pyrazolo[3,4-d]pyridazin-1-yl)-N-(pyridin-2-yl)benzamide] here?
A: The IC50 was 580 nM.

Q: Which IC50 does the source give for COC/C=C/C(=O)N1CC[C@@H](c2cn(-c3ccc(Oc4ccccc4)cc3)c3c(N)n[nH]c(=O)c23)C1 [Example 91, (S,E)-7-amino-3-(1-(4-methoxybut-2-enoyl)pyrrolidin-3-yl)-1-(4-phenoxyphenyl)-1,5-dihydro-4H-pyrrolo[2,3-d]pyridazin-4-one] here?
A: The IC50 was 640 nM.

Q: For COC/C=C/C(=O)N1CC[C@@H](c2cn(-c3ccc(Oc4ccccc4F)cc3)c3c(N)n[nH]c(=O)c23)C1 [Example 92, (S,E)-amino-1-(4-(2-fluorophenoxy)phenyl)-3-(1-(4-methoxybut-2-enoyl)pyrrolidin-3-yl)-1,5-dihydro-4H-pyrrolo[2,3-d]pyridazin-4-one], which IC50 is on record?
A: The IC50 was 649 nM.

Q: CN(C)C/C=C/C(=O)N1CC[C@@H](c2cn(-c3ccc(Oc4ccccc4)cc3)c3c(N)n[nH]c(=O)c23)C1 [Example 93, (S,E)-7-amino-3-(1-(4-(dimethylamino)but-2-enoyl)pyrrolidin-3-yl)-1-(4-phenoxyphenyl)-1,5-dihydro-4H-pyrrolo[2,3-d]pyridazin-4-one] was tested. Which IC50 did it give?
A: Its IC50 is 239 nM.

Q: How did the IC50 turn out when CN(C)C/C=C/C(=O)N1CC[C@@H](c2cn(-c3ccc(Oc4ccccc4F)cc3)c3c(N)n[nH]c(=O)c23)C1 [Example 94, (S,E)-7-amino-3-(1-(4-(dimethylamino)but-2-enoyl)pyrrolidin-3-yl)-1-(4-(2-fluorophenoxy)phenyl)-1,5-dihydro-4H-pyrrolo[2,3-d]pyridazin-4-one] was run?
A: The IC50 was 247 nM.

Q: Which IC50 does the source give for Nc1n[nH]c(=O)c2c([C@@H]3CCN(C(=O)/C=C/[C@H]4CCN4)C3)cn(-c3ccc(Oc4ccccc4)cc3)c12 [Example 97, 7-amino-3-((S)-1-((E)-3-((R)-azetidin-2-yl)acryloyl)pyrrolidin-3-yl)-1-(4-phenoxyphenyl)-1,5-dihydro-4H-pyrrolo[2,3-d]pyridazin-4-one] here?
A: The IC50 was 701 nM.

Q: Which IC50 does the source give for COC/C=C/C(=O)N1CCC[C@@H](c2cn(-c3ccc(Oc4ccccc4)cc3)c3c(N)n[nH]c(=O)c23)C1 [Example 101, (S,E)-7-amino-3-(1-(4-methoxybut-2-enoyl)piperidin-3-yl)-1-(4-phenoxyphenyl)-1,5-dihydro-4H-pyrrolo[2,3-d]pyridazin-4-one] here?
A: The IC50 was 208 nM.

Q: How did the IC50 turn out when COC/C=C/C(=O)N1CCC[C@@H](c2cn(-c3ccc(Oc4ccccc4F)cc3)c3c(N)n[nH]c(=O)c23)C1 [Example 102, (S,E)-7-amino-1-(4-(2-fluorophenoxy)phenyl)-3-(1-(4-methoxybut-2-enoyl)piperidin-3-yl)-1,5-dihydro-4H-pyrrolo[2,3-d]pyridazin-4-one] was run?
A: Its IC50 is 319 nM.

Q: How did the IC50 turn out when CN(C)C/C=C/C(=O)N1CCC[C@@H](c2cn(-c3ccc(Oc4ccccc4)cc3)c3c(N)n[nH]c(=O)c23)C1 [Example 103, (S,E)-7-amino-3-(1-(4-(dimethylamino)but-2-enoyl)piperidin-3-yl)-1-(4-phenoxyphenyl)-1,5-dihydro-4H-pyrrolo[2,3-d]pyridazin-4-one] was run?
A: The IC50 was 97 nM.

Q: Which IC50 does the source give for CN(C)C/C=C/C(=O)N1CCC[C@@H](c2cn(-c3ccc(Oc4ccccc4F)cc3)c3c(N)n[nH]c(=O)c23)C1 [Example 104, (S,E)-7-amino-3-(1-(4-(dimethylamino)but-2-enoyl)piperidin-3-yl)-1-(4-(2-fluorophenoxy)phenyl)-1,5-dihydro-4H-pyrrolo[2,3-d]pyridazin-4-one] here?
A: The IC50 was 151 nM.

Q: CN1CC[C@@H]1/C=C/C(=O)N1CCC[C@@H](c2cn(-c3ccc(Oc4ccccc4)cc3)c3c(N)n[nH]c(=O)c23)C1 [Example 107, 7-amino-3-((S)-1-((E)-3-((R)-1-methylazetidin-2-yl)acryloyl)piperidin-3-yl)-1-(4-phenoxyphenyl)-1,5-dihydro-4H-pyrrolo[2,3-d]pyridazin-4-one] was tested. Which IC50 did it give?
A: Its IC50 is 737 nM.

Q: For CCN1CC[C@@H]1/C=C/C(=O)N1CCC[C@@H](c2cn(-c3ccc(Oc4ccccc4F)cc3)c3c(N)n[nH]c(=O)c23)C1 [Example 110, 7-amino-3-((S)-1-((E)-3-((R)-1-ethylazetidin-2-yl)acryloyl)piperidin-3-yl)-1-(4-(2-fluorophenoxy)phenyl)-1,5-dihydro-4H-pyrrolo[2,3-d]pyridazin-4-one], which IC50 is on record?
A: Its IC50 is 123 nM.

Q: With C=CC(=O)N1CC(c2cn(-c3ccc(Oc4ccccc4F)cc3)c3c(N)n[nH]c(=O)c23)C1 [Example 111, 3-(1-acryloylazetidin-3-yl)-7-amino-1-(4-(2-fluorophenoxy)phenyl)-1,5-dihydro-4H-pyrrolo [2,3-d]pyridazin-4-one] as the compound, how does the IC50 read?
A: Its IC50 is 261 nM.

Q: For C=CC(=O)N1CCC(c2cn(-c3ccc(Oc4ccccc4)cc3)c3c(N)n[nH]c(=O)c23)CC1 [Example 112, 3-(1-acryloylpiperidin-4-yl)-7-amino-1-(4-phenoxyphenyl)-1,5-dihydro-4H-pyrrolo[2,3-d]pyridazin-4-one], which IC50 is on record?
A: The IC50 was 78 nM.

Q: How did the IC50 turn out when C=CC(=O)N1CCC(c2cn(-c3ccc(Oc4ccccc4F)cc3)c3c(N)n[nH]c(=O)c23)CC1 [Example 113, 3-(1-acryloylpiperidin-4-yl)-7-amino-1-(4-(2-fluorophenoxy)phenyl)-1,5-dihydro-4H-pyrrolo[2,3-d]pyridazin-4-one] was run?
A: Its IC50 is 161 nM.

Q: With C=CC(=O)N1CC(c2cn(-c3ccc(Oc4ccccc4)cc3)c3c(N)n[nH]c(=O)c23)C1 [Example 114, 3-(1-acryloylazetidin-3-yl)-7-amino-1-(4-phenoxyphenyl)-1,5-dihydro-4H-pyrrolo[2,3-d] pyridazin-4-one] as the compound, how does the IC50 read?
A: Its IC50 is 473 nM.
